Test results published in PMC2577155 (The Journal of neuroscience : the official journal of the …, 2008).
Residue numbers refer to the chain shown, from its start. Like-named read-outs stand apart in the source and are kept apart here.

How the values were obtained:
Sprague-Dawley rats [1] = test: Catalepsy test; assay type: in vivo, rat; settings: sc, up to 4 h; TBPB 30-100 mg/kg
rM1 Y381A = biological target: T1, rM1 Y381A (Rattus norvegicus, UniProt P08482, Y381A); settings: ref Sur et al., 2003; cited from earlier work
T1 sequence (P08482 1-460 Y381A): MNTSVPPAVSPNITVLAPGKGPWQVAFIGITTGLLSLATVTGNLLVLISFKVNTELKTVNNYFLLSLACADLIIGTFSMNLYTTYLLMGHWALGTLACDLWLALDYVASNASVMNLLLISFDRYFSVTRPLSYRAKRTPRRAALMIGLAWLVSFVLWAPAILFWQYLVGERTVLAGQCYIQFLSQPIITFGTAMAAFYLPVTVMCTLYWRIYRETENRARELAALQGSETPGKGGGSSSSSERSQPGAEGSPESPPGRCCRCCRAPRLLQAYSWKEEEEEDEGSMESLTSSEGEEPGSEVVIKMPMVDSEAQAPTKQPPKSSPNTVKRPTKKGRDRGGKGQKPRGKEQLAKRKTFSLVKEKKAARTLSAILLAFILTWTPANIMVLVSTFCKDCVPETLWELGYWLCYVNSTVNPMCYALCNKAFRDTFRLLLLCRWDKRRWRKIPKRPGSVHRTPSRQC

Sprague-Dawley rats [2] = settings: ref Shannon et al., 2000; cited from earlier work
hM2 = biological target: T2, hM2 (Homo sapiens, UniProt P08172); test: Calcium mobilization assay, CHO cells expressing hM2-Gqi5; assay type: cell-based; settings: M2, concentrations up to 10μM
T2 sequence (P08172 1-466): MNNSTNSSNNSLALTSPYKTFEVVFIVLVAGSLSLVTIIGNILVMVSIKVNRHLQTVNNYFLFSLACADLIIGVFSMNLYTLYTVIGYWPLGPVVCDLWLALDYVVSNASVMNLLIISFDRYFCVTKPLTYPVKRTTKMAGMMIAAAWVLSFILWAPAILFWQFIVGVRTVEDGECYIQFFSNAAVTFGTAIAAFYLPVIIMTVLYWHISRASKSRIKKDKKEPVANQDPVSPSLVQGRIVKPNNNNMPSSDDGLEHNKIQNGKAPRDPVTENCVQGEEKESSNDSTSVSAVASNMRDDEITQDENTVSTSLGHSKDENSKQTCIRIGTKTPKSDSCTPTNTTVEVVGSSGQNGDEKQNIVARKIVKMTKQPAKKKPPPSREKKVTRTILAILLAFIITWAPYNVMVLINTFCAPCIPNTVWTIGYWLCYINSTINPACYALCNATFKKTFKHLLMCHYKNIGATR

hM3 = hM3 (Homo sapiens, UniProt P20309); test: Calcium mobilization assay, CHO cells expressing hM3; assay type: cell-based; settings: M3, concentrations up to 10μM
Chain of hM3 (P20309 whole entry): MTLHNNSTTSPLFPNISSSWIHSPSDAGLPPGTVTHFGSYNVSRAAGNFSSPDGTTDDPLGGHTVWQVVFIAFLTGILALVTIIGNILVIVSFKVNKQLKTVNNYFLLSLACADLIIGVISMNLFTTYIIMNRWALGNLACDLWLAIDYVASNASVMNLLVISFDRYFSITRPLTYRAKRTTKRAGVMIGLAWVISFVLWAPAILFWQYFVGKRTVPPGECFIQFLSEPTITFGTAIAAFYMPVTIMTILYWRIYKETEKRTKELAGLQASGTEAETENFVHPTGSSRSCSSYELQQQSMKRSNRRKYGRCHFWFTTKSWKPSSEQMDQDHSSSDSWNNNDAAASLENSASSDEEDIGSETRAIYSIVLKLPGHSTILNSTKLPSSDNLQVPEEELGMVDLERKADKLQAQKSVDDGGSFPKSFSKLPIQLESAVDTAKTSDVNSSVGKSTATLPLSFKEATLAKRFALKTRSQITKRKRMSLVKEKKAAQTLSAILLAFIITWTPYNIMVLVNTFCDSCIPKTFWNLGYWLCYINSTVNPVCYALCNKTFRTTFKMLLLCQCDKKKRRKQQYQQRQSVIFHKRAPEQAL

rM4 = biological target: T3, rM4 (Rattus norvegicus, UniProt P08485); test: Calcium mobilization assay, CHO-K1 cells expressing rM4-Gqi5; assay type: cell-based; settings: M4, concentrations up to 10μM
T3 sequence (P08485 1-478): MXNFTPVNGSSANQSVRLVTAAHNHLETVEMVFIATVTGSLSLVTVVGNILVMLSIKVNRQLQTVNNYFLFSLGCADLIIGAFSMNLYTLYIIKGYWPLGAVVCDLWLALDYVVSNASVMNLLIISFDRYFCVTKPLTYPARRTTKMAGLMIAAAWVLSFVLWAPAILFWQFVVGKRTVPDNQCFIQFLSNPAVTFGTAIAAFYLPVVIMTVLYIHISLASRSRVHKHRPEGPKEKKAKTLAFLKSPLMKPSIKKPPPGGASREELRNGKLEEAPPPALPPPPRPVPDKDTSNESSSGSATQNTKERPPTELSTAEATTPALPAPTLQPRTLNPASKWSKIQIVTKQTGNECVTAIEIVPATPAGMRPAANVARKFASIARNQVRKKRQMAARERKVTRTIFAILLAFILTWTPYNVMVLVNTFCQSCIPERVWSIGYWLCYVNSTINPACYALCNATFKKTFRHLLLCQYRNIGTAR

hM5 = biological target: T4, hM5 (Homo sapiens, UniProt P08912); test: Calcium mobilization assay, CHO cells expressing hM5; assay type: cell-based; settings: M5, concentrations up to 10μM
T4 sequence (P08912 1-532): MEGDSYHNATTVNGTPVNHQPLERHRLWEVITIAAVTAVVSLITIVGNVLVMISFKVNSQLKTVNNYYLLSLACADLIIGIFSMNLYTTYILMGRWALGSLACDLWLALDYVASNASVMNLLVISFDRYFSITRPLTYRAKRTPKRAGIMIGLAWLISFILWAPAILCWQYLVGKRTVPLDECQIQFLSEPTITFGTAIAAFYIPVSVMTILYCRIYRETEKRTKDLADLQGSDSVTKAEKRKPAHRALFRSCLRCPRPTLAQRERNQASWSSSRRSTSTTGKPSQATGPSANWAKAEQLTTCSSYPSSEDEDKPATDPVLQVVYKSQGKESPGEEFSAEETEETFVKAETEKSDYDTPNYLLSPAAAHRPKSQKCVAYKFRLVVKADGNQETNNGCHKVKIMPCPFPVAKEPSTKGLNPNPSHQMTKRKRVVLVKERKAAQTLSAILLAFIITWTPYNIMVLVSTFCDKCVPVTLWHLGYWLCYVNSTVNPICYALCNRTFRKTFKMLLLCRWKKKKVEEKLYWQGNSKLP

[3] = system: amyloid precursor protein (APP) processing; assay type: cell-based; settings: eight hours
Aβ40 = assay type: cell-based; settings: conditioned media, ELISA
[4] = system: Fos-like immunoreactivity; test: Fos immunohistochemistry in rat forebrain; assay type: in vivo; settings: 100 mg/kg sc, two hours after treatment
Sprague-Dawley rats [5] = test: Amphetamine-induced hyperlocomotion; assay type: in vivo, rat; settings: significant after 10, 30 and 56.6 mg/kg sc; amphetamine 1 mg/kg sc
Sprague-Dawley rats [6] = test: Locomotor activity when administered alone; assay type: in vivo, rat; settings: 30-100 mg/kg sc
rats = test: Modified Irwin neurological test battery; assay type: in vivo, rat; settings: 100 mg/kg
D2 receptors = D2 receptors (Homo sapiens, UniProt P14416); test: D2 receptor affinity, NIMH Psychoactive Drug Screening Program; assay type: binding; settings: D2, PDSP accession number 3156
Chain of D2 receptors (P14416 whole entry): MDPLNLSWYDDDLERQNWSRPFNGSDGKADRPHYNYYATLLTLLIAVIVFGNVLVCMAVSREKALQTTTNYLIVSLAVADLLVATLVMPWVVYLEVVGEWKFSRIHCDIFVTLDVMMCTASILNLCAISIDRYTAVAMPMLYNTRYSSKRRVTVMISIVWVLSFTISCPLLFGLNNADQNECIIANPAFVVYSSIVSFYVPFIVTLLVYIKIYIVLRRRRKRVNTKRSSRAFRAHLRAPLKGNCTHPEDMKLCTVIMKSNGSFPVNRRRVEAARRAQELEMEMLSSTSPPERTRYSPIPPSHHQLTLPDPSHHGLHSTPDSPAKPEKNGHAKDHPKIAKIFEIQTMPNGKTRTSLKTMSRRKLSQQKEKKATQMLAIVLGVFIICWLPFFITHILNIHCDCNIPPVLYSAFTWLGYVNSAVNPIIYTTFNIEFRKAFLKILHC

rM1 [7] = biological target: T5, rM1 (Rattus norvegicus, UniProt P08482); settings: wt rM1
T5 sequence (P08482 1-460): T1 sequence (P08482 1-460 Y381A) with A381Y

rM1 [8] = biological target: T5, rM1; settings: atropine 1-10 nM (CCh) or 0.3-3.0 nM (TBPB)

**Q.** Which catalepsy (Sprague-Dawley rats [1]) does the source give for `O=C(CCCN1CCC(O)(c2ccc(Cl)cc2)CC1)c1ccc(F)cc1` [Haloperidol, haloperidol] here?
**A.** Its catalepsy is “dose-and time-related increases in catalepsy”.

**Q.** With `Clc1ccc2c(c1)N=C(N1CCNCC1)c1ccccc1N2` [N-desmethylclozapine] as the compound, how does the “activation of the M1 (Y381A) mutant” value (rM1 Y381A) read?
**A.** The value was “fully activates”.

**Q.** For `CCCCCCOc1nsnc1C1=CCCN(C)C1` [xanomeline], which catalepsy (Sprague-Dawley rats [2]) is on record?
**A.** The catalepsy was “lack of catalepsy”.

**Q.** For `CN1CCN(C2=Nc3cc(Cl)ccc3Nc3ccccc32)CC1` [clozapine], which catalepsy (Sprague-Dawley rats [1]) is on record?
**A.** The catalepsy was “failed to produce catalepsy”.

**Q.** With `Cc1ccccc1CN1CCC(N2CCC(n3c(=O)[nH]c4ccccc43)CC2)CC1` [TBPB] as the compound, how does the agonist activity (hM2) read?
**A.** Its agonist activity is “no agonist activity”.

**Q.** What about the agonist activity (hM3) of the same compound?
**A.** Its agonist activity is “no agonist activity”.

**Q.** What about the agonist activity (rM4) of the same compound?
**A.** Its agonist activity is “no agonist activity”.

**Q.** And the agonist activity (hM5)?
**A.** Its agonist activity is “no agonist activity”.

**Q.** And the “increase in shedding of APPsα compared to vehicle-treated cells” value ([3]; 1 μM)?
**A.** The value was 58%.

**Q.** What about the “production of CTFα” value ([3]; cell lysates) of the same compound?
**A.** Its value is “increased”.

**Q.** What about the “Aβ40 levels, % of the vehicle control” value (Aβ40) of the same compound?
**A.** Its value is 61%.

**Q.** What about the “number of Fos-like immunoreactive neurons” value (“number” below) ([4]; DStr lateral) of the same compound?
**A.** Its value is 2.3 ± 1.3 per mm^2.

**Q.** What about the “number” value ([4]; DStr medial) of the same compound?
**A.** Its value is 4.2 ± 1.2 per mm^2.

**Q.** And the “number” value ([4]; NAS shell)?
**A.** Its value is 72.2 ± 12.6 per mm^2.

**Q.** What about the “number” value ([4]; PFC) of the same compound?
**A.** The value was 326.3 ± 57.1 per mm^2.

**Q.** And the “effect on amphetamine-induced hyperlocomotion” value (Sprague-Dawley rats [5])?
**A.** The value was “robust, dose-related inhibition”.

**Q.** What about the “effect on general locomotor output when administered alone” value (Sprague-Dawley rats [6]) of the same compound?
**A.** Its value is “no effect”.

**Q.** And the catalepsy (Sprague-Dawley rats [1])?
**A.** Its catalepsy is “did not induce catalepsy”.

**Q.** What about the core body temperature (rats) of the same compound?
**A.** Its core body temperature is “slight decrease”.

**Q.** What about the Ki (D2 receptors) of the same compound?
**A.** Its Ki is 1.4 µM.

**Q.** What about the “response as % of the maximal response to CCh” value (rM1 [7]) of the same compound?
**A.** Its value is 77.3±3.4%.

**Q.** What about the “interaction of the agonist with the orthosteric antagonist atropine” value (rM1 [8]) of the same compound?
**A.** The value was “noncompetitive”.
